From ChEMBL document CHEMBL6134780, “Halogenated retinoid derivatives as dual RARα and RXRα modulators for treating acute promyelocytic leukemia cells” (Eur J Med Chem, 2024)
Active and inactive are the calls of the source. No cut-off for these calls is given here.

Columns and labels:
NB-4 [1] = assay: Cell cycle arrest in human NB4 cells assessed as accumulation of cells at G2/M phase at 1 uM incubated for 12 hrs by DAPI staining based flow cytometric analysis (reference value: 26 %); format: functional
NB-4 [2] = assay: Cell cycle arrest in human NB4 cells assessed as accumulation of cells at S phase at 1 uM incubated for 12 hrs by DAPI staining based flow cytometric analysis (reference value: 20 %); format: functional
NB-4 [3] = assay: Cell cycle arrest in human NB4 cells assessed as accumulation of cells at sub-G1 phase at 1 uM incubated for 12 hrs by DAPI staining based flow cytometric analysis (reference value: 2 %); format: functional
[4] = Cell cycle arrest in human ATRA-resistant NB4-LR2 cells assessed as accumulation of cells at S phase at 1 uM incubated for 12 hrs by DAPI staining based flow cytometric analysis (reference value: 12 %); format: functional
NB-4 [5] = assay: Antiproliferative activity against human NB4 cells assessed as inhibition of cell viability at 0.125 uM incubated for 3 days by CCK8 assay relative to control; format: functional; details: NB-4, 72 h, time 3 day
[6] = Cell cycle arrest in human ATRA-resistant NB4-LR2 cells assessed as accumulation of cells at G0/G1 phase at 1 uM incubated for 12 hrs by DAPI staining based flow cytometric analysis (reference value: 42 %); format: functional
[7] = Cell cycle arrest in human ATRA-resistant NB4-LR2 cells assessed as accumulation of cells at sub-G1 phase at 1 uM incubated for 12 hrs by DAPI staining based flow cytometric analysis (reference value: 18 %); format: functional
NB-4 [8] = assay: Induction of apoptosis in human NB4 cells assessed as early apoptotic cells at 1 uM incubated for 24 hrs by Annexin V-FITC/PI staining based flow cytometric analysis (reference value: 1.77 %); format: functional
NB-4 [9] = assay: Induction of cell differentiation in human NB4 cells assessed as NBT positive cells at 0.5 uM incubated for 6 days by Nitro Blue tetrazolium chloride based microscopic analysis (reference value: 0 %); format: functional; details: time 6 day
[10] = Cell cycle arrest in human ATRA-resistant NB4-LR2 cells assessed as accumulation of cells at G2/M phase at 1 uM incubated for 12 hrs by DAPI staining based flow cytometric analysis (reference value: 28 %); format: functional
NB-4 [11] = assay: Cell cycle arrest in human NB4 cells assessed as accumulation of cells at G0/G1 phase at 1 uM incubated for 12 hrs by DAPI staining based flow cytometric analysis (reference value: 51 %); format: functional
[12] = target: T1, Retinoic acid receptor alpha (Homo sapiens) (UniProt P10276); assay: Agonist activity at full length RARalpha LBD (unknown origin) transfected in HEK293T cells co-transfected with pG5luc reporter and Renilla-luc assessed as transactivation at 0.5 to 1 uM incubated for 12 hrs by luciferase reporter gene assay; format: cell-based; details: filed as agonist, dose 0.5-1 µM
T1 sequence (whole entry): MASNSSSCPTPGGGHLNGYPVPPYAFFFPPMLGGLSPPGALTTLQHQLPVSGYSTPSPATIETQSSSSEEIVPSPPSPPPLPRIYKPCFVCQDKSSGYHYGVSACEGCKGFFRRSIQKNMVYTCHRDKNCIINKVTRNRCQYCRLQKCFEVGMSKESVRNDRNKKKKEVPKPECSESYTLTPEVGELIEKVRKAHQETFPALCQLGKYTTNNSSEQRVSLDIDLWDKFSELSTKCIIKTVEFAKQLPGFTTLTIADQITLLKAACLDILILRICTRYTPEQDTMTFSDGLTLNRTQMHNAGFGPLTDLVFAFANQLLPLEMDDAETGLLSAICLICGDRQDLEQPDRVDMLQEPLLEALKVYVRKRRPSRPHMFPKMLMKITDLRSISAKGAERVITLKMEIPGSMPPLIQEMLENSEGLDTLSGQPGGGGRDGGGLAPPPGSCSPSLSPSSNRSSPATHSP

[13] = Induction of apoptosis in human ATRA-resistant NB4-LR2 cells assessed as early apoptotic cells at 1 uM incubated for 24 hrs by Annexin V-FITC/PI staining based flow cytometric analysis (reference value: 1.41 %); format: functional
[14] = Induction of apoptosis in human ATRA-resistant NB4-LR2 cells assessed as late apoptotic cells at 1 uM incubated for 24 hrs by Annexin V-FITC/PI staining based flow cytometric analysis (reference value: 5.62 %); format: functional
NB-4 [15] = assay: Induction of apoptosis in human NB4 cells assessed as late apoptotic cells at 1 uM incubated for 24 hrs by Annexin V-FITC/PI staining based flow cytometric analysis (reference value: 2.23 %); format: functional
NB-4 [16] = assay: Induction of apoptosis in human NB4 cells assessed as late apoptotic cells at 1 uM incubated for 24 hrs by Annexin V-FITC/PI staining based flow cytometric analysis (reference value: 3.20 %); format: functional
NB-4 [17] = assay: Cell cycle arrest in human NB4 cells assessed as accumulation of cells at S phase at 0.5 uM incubated for 6 days for DAPI staining based flow cytometric analysis (reference value: 27 %); format: functional; details: time 6 day
K562 [18] = assay: Effect on cell cycle population in human K562 cells at 0.5 uM by DAPI staining based flow cytometric analysis; format: functional
NB-4 [19] = assay: Cell cycle arrest in human NB4 cells assessed as accumulation of cells at sub-G1 phase at 0.5 uM incubated for 6 days for DAPI staining based flow cytometric analysis (reference value: 6 %); format: functional; details: time 6 day
HEK293T = assay: Agonist activity at full length RARalpha LBD R276E mutant (unknown origin) transfected in HEK293T cells co-transfected with pG5luc reporter and Renilla-luc at 1 uM incubated for 12 hrs by luciferase reporter gene assay; format: cell-based; details: Homo sapiens, filed as agonist
Homo sapiens = species on record: Homo sapiens; assay: Binding affinity to N-terminal His-tagged human RARalpha LBD R276E mutant extracted from Escherichia coli BL21 (DE3) cells by ITC analysis
Jurkat = assay: Induction of cell differentiation in human Jurkat cells at 0.5 uM incubated for 6 days by CD11b staining based flow cytometric analysis; format: functional; details: time 6.0 day
NB-4 [20] = assay: Induction of cell death in M phase synchronized human NB4 cells assessed as reduction in mitotic cells at 0.5 uM preincubated for 4 days followed by release from thymidine block for 10 hrs by immunofluorescence staining based analysis; format: functional; details: time 106.0 hrs
NB-4 [21] = assay: Induction of cell differentiation in human NB4 cells at 0.5 uM incubated for 4 to 6 days by CD11b staining based flow cytometric analysis; format: functional; details: time 4-6 day
K562 [22] = assay: Induction of cell differentiation in human K562 cells at 0.5 uM incubated for 6 days by CD11b staining based flow cytometric analysis; format: functional; details: time 6.0 day
NB-4 [23] = assay: Induction of apoptosis in human NB4 cells assessed as necrotic cells at 1 uM incubated for 24 hrs by Annexin V-FITC/PI staining based flow cytometric analysis (reference value: 0.07 %); format: functional
K562 [24] = assay: Induction of apoptosis in human K562 cells assessed as viable cells at 2 uM incubated for 24 hrs by Annexin V-FITC/PI staining based flow cytometric analysis (reference value: 90.02 %); format: functional; details: read-out: Activity
NB-4 [25] = assay: Cell cycle arrest in human NB4 cells assessed as accumulation of cells at G0/G1 phase at 0.5 uM incubated for 6 days for DAPI staining based flow cytometric analysis (reference value: 52 %); format: functional; details: time 6 day
[26] = Induction of apoptosis in human ATRA-resistant NB4-LR2 cells assessed as early apoptotic cells at 1 uM incubated for 24 hrs by Annexin V-FITC/PI staining based flow cytometric analysis (reference value: 5.38 %); format: functional
NB-4 [27] = assay: Cell cycle arrest in human NB4 cells assessed as accumulation of cells at G2/M phase at 0.5 uM incubated for 6 days for DAPI staining based flow cytometric analysis (reference value: 15 %); format: functional; details: time 6 day
[28] = Induction of apoptosis in human ATRA-resistant NB4-LR2 cells assessed as necrotic cells at 1 uM incubated for 24 hrs by Annexin V-FITC/PI staining based flow cytometric analysis (reference value: 0.08 %); format: functional
NB-4 [29] = assay: Induction of apoptosis in human NB4 cells assessed as early apoptotic cells at 1 uM incubated for 24 hrs by Annexin V-FITC/PI staining based flow cytometric analysis (reference value: 4.37 %); format: functional
ATRA-resistant NB4-LR2 = assay: Antiproliferative activity against human ATRA-resistant NB4-LR2 cells assessed as effect on cell viability up to 2 uM incubated for 3 days by CCK8 assay; format: functional, cell-based; details: time 3.0 day
K562 [30] = assay: Induction of apoptosis in human K562 cells assessed as necrotic cells at 2 uM incubated for 24 hrs by Annexin V-FITC/PI staining based flow cytometric analysis (reference value: 2.19 %); format: functional
NB-4 [31] = assay: Induction of apoptosis in human NB4 cells assessed as viable cells at 1 uM incubated for 24 hrs by Annexin V-FITC/PI staining based flow cytometric analysis (reference value: 92.36 %); format: functional; details: read-out: Activity
NB-4 [32] = assay: Antiproliferative activity against human NB4 cells assessed as inhibition of cell viability at 0.1 uM incubated for 3 days by CCK8 assay relative to control; format: functional; details: NB-4, 72 h, time 3 day
[33] = Induction of apoptosis in human ATRA-resistant NB4-LR2 cells assessed as viable cells at 1 uM incubated for 24 hrs by Annexin V-FITC/PI staining based flow cytometric analysis (reference value: 87.30 %); format: functional; details: read-out: Activity
[34] = Induction of apoptosis in human ATRA-resistant NB4-LR2 cells assessed as late apoptotic cells at 1 uM incubated for 24 hrs by Annexin V-FITC/PI staining based flow cytometric analysis (reference value: 7.23 %); format: functional
[35] = target: T2, Retinoic acid receptor gamma (Homo sapiens) (UniProt P13631); assay: Agonist activity at Gal4-fused full length human RARgamma LBD transfected in HEK293T cells co-transfected with pG5luc reporter and Renilla-luc assessed as transactivation by measuring maximal efficacy incubated for 12 hrs by dual luciferase reporter gene assay relative to control; format: cell-based; details: filed as agonist
T2 sequence (whole entry): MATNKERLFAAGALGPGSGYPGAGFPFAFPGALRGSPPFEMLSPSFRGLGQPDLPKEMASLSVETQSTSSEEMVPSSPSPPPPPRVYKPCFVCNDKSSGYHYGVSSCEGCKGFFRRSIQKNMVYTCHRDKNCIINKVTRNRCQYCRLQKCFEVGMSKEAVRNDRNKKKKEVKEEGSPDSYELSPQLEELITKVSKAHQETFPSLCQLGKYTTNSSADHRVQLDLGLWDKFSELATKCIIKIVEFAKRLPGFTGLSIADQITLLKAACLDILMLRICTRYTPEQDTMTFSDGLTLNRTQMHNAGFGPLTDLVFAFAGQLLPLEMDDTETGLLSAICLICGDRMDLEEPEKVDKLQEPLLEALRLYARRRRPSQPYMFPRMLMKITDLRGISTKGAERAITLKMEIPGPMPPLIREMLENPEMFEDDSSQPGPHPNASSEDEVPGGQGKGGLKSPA

K562 [36] = assay: Induction of apoptosis in human K562 cells assessed as late apoptotic cells at 2 uM incubated for 24 hrs by Annexin V-FITC/PI staining based flow cytometric analysis (reference value: 5.98 %); format: functional
K562 [37] = assay: Induction of apoptosis in human K562 cells assessed as early apoptotic cells at 2 uM incubated for 24 hrs by Annexin V-FITC/PI staining based flow cytometric analysis (reference value: 0.91 %); format: functional

SMILES: Cc1cc2c(cc1C(=O)/C(I)=C/c1ccc(C(=O)O)cc1)C(C)(C)CCC2(C)C
- Activity (NB-4 [1]): 24%
- Activity (NB-4 [2]): 11%
- Activity (NB-4 [3]): 2%
- Activity [4]: 9%
- inhibition at 0.125 µM (NB-4 [5]): ~40%
- Activity [6]: 41%
- Activity [7]: 20%
- Activity (NB-4 [8]): 0.58%
- Activity (NB-4 [9]): 78%
- Activity [10]: 30%
- Activity (NB-4 [11]): 63%
- Activity [12]: Active; Highly Raralpha Selective Agonistic Activity Observed
- Activity [13]: 1.1%
- Activity [14]: 6.66%
- Activity (NB-4 [15]): 4.24%

SMILES: CC1=C(/C=C/C(C)=C/C=C/C(C)=C/C(=O)O)C(C)(C)CCC1 [TRETINOIN]
- Activity (NB-4 [1]): 23%
- Activity (NB-4 [16]): 6.37%
- Activity (NB-4 [17]): 17%
- Activity (K562 [18]): inactive
- Activity (NB-4 [2]): 10%
- Activity (NB-4 [3]): 2%
- Activity (NB-4 [19]): 3%
- Activity [4]: 11%
- Activity (HEK293T): Active; Partial Impairment Observed
- Activity (Homo sapiens): inactive
- Activity (Jurkat): inactive
- Activity (NB-4 [20]): Active
- Activity (NB-4 [21]): Active
- Activity (K562 [22]): inactive
- Activity (NB-4 [23]): 0.13%
- viability at 2 µM (K562 [24]): 89.5%
- Activity (NB-4 [25]): 64%
- Activity [26]: 3.39%
- Activity (NB-4 [27]): 16%
- Activity [6]: 43%
- Activity [7]: 19%
- Activity [28]: 0.08%
- Activity (NB-4 [9]): 33%
- Activity [10]: 27%
- Activity (NB-4 [11]): 65%
- Activity (NB-4 [29]): 3.11%
- Activity (ATRA-resistant NB4-LR2): inactive
- Activity (K562 [30]): 2.01%
- viability at 1 µM (NB-4 [31]): 90.4%
- inhibition at 0.1 µM (NB-4 [32]): ~40%
- viability at 1 µM [33]: 88.6%
- Activity [34]: 7.92%
- Emax [35]: 100%
- Activity (K562 [36]): 6.84%
- Activity (K562 [37]): 1.04%

SMILES: Cc1cc2c(cc1C(=O)/C(I)=C\c1ccc(C(=O)O)cc1)C(C)(C)CCC2(C)C
- Activity [12]: Active
